Patent EP0178946A2, “1-(Aminoalkyl)-alpha, alpha-diaryl pyrrolidine-piperidine- and homopiperidine- acetamides and acetonitriles” (A.H. ROBINS COMPANY, INCORPORATED, priority 1984, dated 1986)

System: Cardiac Arrhythmia in Dogs
Test: Ouabain induced arrhythmias: correction of existing ventricular arrhythmia by i.v. infusion
Assay type: in vivo, adult mongrel dogs
Details: Canis lupus familiaris, iv, 0.5 h; Ouabain-Induced arrhythmia model; dogs under barbiturate anaesthesia; infusion into a femoral vein at 1 mg/kg/min; active if reversion to sinus rhythm maintained for at least 30 minutes; tested as difumarate hemihydrate salt, dose computed as free base; read-out: Correcting Dose mg/kg, i.v. (computed as free base)
Protocol: Correction of existing cardiac arrhythmias of ventricular origin is carried out on (1) adult mongrel dogs which are under barbiturate anaesthesia during the test. A Grass Model 7 Polygraph was used for recording femoral arterial blood pressure (Statham P23AC Transducer) and the electro- cardiagram (Grass 7P4 Preamplifier). Ouabain was given intravenously in an initial dose of 40 µg/kg and in a second dose of 20 µg/kg 30 minutes after the first dose and in subsequent doses of 10 µg/kg which were repeated at 15 min. intervals as required for producing cardiac arrhythmias that persisted for at least 15 minutes. When the arrhythmias were established, the test compounds were administered by infusion (Harvard Model 942 Infusion Pump) into a femoral vein at a rate of 1 mg/kg/min. Concentration of compound was adjusted according to the weight of the dog to allow a volume infusion of 1 ml/min. The compound was considered to be active as antiarrhythmic agent if reversion to sinus rhythm occurred which was maintained for at least 30 minutes.
Data obtained for one preferred compound, namely 1-[2-(dimethylamino)ethyl]α,α-diphenyl-3-pyrrolidine- acetamide as represented by its defumarate hemihydrate salt are shown in Table 1.

## CN(C)CCN1CCC(C(C(N)=O)(c2ccccc2)c2ccccc2)C1 (stereo not drawn) [Example 5, 1-2-(Dimethylamino)ethyl]-α,α-diphenyl-3-pyrrolidine-acetamide difumarate, hemihydrate]
  minimal effective dose: 5 mg/kg
